Reference: patent US11306078B2, “Piperidine CXCR7 receptor modulators” (IDORSIA PHARMACEUTICALS LTD., priority 2016, dated 2022)

Each compound was assayed against human chemokine receptor CXCR7 (Homo sapiens (Human), UniProt P25106) (assay: Tango CXCR7-bla U2OS beta-arrestin recruitment assay (beta-lactamase reporter, FRET), antagonism of CXCL12/SDF1-α). Conditions: antagonistic effect on CXCR7; Tango CXCR7-bla U2OS cells, CXCL12/SDF1-α at its EC80.
Type: cell-based
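Also: compounds preincubated 15 min before CXCL12 addition, then 22 h at 37 °C, FRET emission ratio read with CCF4-AM substrate after 2 h.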

Chain of human chemokine receptor CXCR7 (P25106 whole entry): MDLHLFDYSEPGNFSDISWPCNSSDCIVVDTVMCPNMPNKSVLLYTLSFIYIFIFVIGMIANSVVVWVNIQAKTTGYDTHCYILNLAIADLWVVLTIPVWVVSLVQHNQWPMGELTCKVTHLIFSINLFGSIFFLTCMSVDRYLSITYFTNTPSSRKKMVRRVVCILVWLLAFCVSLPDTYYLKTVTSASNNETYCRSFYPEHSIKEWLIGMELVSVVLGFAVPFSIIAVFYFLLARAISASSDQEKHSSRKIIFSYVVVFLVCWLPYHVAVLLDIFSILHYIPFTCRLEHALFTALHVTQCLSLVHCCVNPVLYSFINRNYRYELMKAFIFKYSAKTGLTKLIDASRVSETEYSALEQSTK

First: CCN1CC[C@H](NC(=O)c2cc(-c3ccc(F)cc3F)on2)[C@@H](C(=O)N[C@H](C)c2cccc(C)n2)C1 [Example 4.095]
Second: CCN1CC[C@H](NC(=O)c2cc(-c3ccc(F)cc3F)on2)[C@@H](C(=O)NC(C)(C)c2ncccn2)C1 [Example 4.096]
The IC50 of the first is 1.7-fold higher: 57 nM for the first, 33 nM for the second. The second is the more potent here.

First: O=C(N[C@H]1CCN(C2CCC2)C[C@@H]1C(=O)NC1(c2cccc(Cl)c2)COC1)c1cc(-c2ccc(F)cc2F)on1 [Example 4.097]
Second: C[C@@H](NC(=O)[C@H]1CN(C2CCC2)CC[C@@H]1NC(=O)c1cc(-c2ccc(F)cc2F)on1)c1ncccc1F [Example 4.098]
The IC50 of the first is 4.4-fold higher: 80 nM for the first, 18 nM for the second.

Going from C[C@@H](NC(=O)[C@H]1CN(C2CCC2)CC[C@@H]1NC(=O)c1cc(-c2ccc(F)cc2F)on1)c1ncccc1F [Example 4.098a] to O=C(N[C@@H]1CCN(CC2CC2)C[C@H]1C(=O)NCc1ncccn1)c1cc(-c2ccc(F)cc2F)on1 [Example 4.099], the IC50 rises from 12 nM to 852 nM (71-fold).

CC(C)(C)N1CC[C@@H](NC(=O)c2cc(-c3ccc(F)cc3F)on2)[C@H](C(=O)NC2(c3ncccn3)CC2)C1 [Example 4.101] gave an IC50 of 71 nM.
First: CC(C)(C)N1CC[C@@H](NC(=O)c2cc(-c3ccc(F)cc3F)on2)[C@H](C(=O)NC2(c3ncccn3)CC2)C1 [Example 4.101a]
Second: CC(C)(C)N1CC[C@H](NC(=O)c2cc(-c3ccc(F)cc3F)on2)[C@@H](C(=O)NC2(c3ncccn3)CC2)C1 [Example 4.101b]
The IC50 of the first is 40-fold lower: 18 nM for the first, 712 nM for the second.

First: CC(C)(NC(=O)[C@H]1CN(CC2CC2)CC[C@@H]1NC(=O)c1cc(-c2ccc(F)cc2F)on1)c1ncccn1 [Example 4.102]
Second: O=C(N[C@H]1CCN(CC2CC2)C[C@@H]1C(=O)NC1(c2ncccn2)CC1)c1noc(-c2ccc(F)cc2)c1F [Example 7.001, (3S,4S)-1-Cyclopropylmethyl-4-{[4-fluoro-5-(4-fluoro-phenyl)-isoxazole-3-carbonyl]-amino}-piperidine-3-carboxylic Acid (1-pyrimidin-2-yl-cyclopropyl)-amide]
The IC50 of the first is 32-fold lower: 1 nM for the first, 32 nM for the second. The first is the more potent here.

First: O=C(N[C@H]1CCN(CC2CC2)C[C@@H]1C(=O)NC1(c2ncccn2)CC1)c1nc(-c2ccc(F)cc2F)co1 [Example 7.01]
Second: Cc1ccccc1-c1cc(C(=O)N[C@H]2CCN(CC3CC3)C[C@@H]2C(=O)NC2(c3ncccn3)CC2)no1 [Example 7.002, (3S,4S)-1-Cyclopropylmethyl-4-[(5-o-tolyl-isoxazole-3-carbonyl)-amino]-piperidine-3-carboxylic acid (1-pyrimidin-2-yl-cyclopropyl)-amide]
The IC50 of the first is 5.1-fold lower: 60 nM for the first, 308 nM for the second.

Going from Cc1ccc(-c2cc(C(=O)N[C@H]3CCN(CC4CC4)C[C@@H]3C(=O)NC3(c4ncccn4)CC3)no2)cc1C [Example 7.003, (3S,4S)-1-Cyclopropylmethyl-4-{[5-(3,4-dimethyl-phenyl)-isoxazole-3-carbonyl]-amino}-piperidine-3-carboxylic acid (1-pyrimidin-2-yl-cyclopropyl)-amide] to O=C(N[C@H]1CCN(CC2CC2)C[C@@H]1C(=O)NC1(c2ncccn2)CC1)c1cn(-c2ccc(F)cc2F)nn1 [Example 7.004, (3S,4S)-1-Cyclopropylmethyl-4-{[1-(2,4-difluoro-phenyl)-1H-[1,2,3]triazole-4-carbonyl]-amino}-piperidine-3-carboxylic acid (1-pyrimidin-2-yl-cyclopropyl)-amide], the IC50 falls from 210 nM to 64 nM (3.3-fold).

Compared with Cc1ccc(-c2cc(C(=O)N[C@H]3CCN(CC4CC4)C[C@@H]3C(=O)NC3(c4ncccn4)CC3)no2)c(C)c1 [Example 7.005, (3S,4S)-1-Cyclopropylmethyl-4-{[5-(2,4-dimethyl-phenyl)-isoxazole-3-carbonyl]-amino}-piperidine-3-carboxylic acid (1-pyrimidin-2-yl-cyclopropyl)-amide], O=C(N[C@H]1CCN(CC2CC2)C[C@@H]1C(=O)NC1(c2ncccn2)CC1)c1cc(-c2ccc(F)cc2F)no1 [Example 7.006, (3S,4S)-1-Cyclopropylmethyl-4-{[3-(2,4-difluoro-phenyl)-isoxazole-5-carbonyl]-amino}-piperidine-3-carboxylic acid (1-pyrimidin-2-yl-cyclopropyl)-amide] is 4.5-fold lower in IC50: 36 nM for the first, 8 nM for the second.

Going from O=C(N[C@H]1CCN(CC2CC2)C[C@@H]1C(=O)NC1(c2ncccn2)CC1)c1ncc(-c2ccc(F)cc2)o1 [Example 7.007, (3S,4S)-1-Cyclopropylmethyl-4-{[5-(4-fluoro-phenyl)-oxazole-2-carbonyl]-amino}-piperidine-3-carboxylic acid (1-pyrimidin-2-yl-cyclopropyl)-amide] to O=C(N[C@H]1CCN(CC2CC2)C[C@@H]1C(=O)NC1(c2ncccn2)CC1)c1noc(-c2ccc(F)cc2F)n1 [Example 7.008, (3S,4S)-1-Cyclopropylmethyl-4-{[5-(2,4-difluoro-phenyl)-[1,2,4]oxadiazole-3-carbonyl]-amino}-piperidine-3-carboxylic acid (1-pyrimidin-2-yl-cyclopropyl)-amide], the IC50 falls from 140 nM to 51 nM (2.7-fold).

First: N#Cc1ccc(-c2cc(C(=O)N[C@H]3CCN(CC4CC4)C[C@@H]3C(=O)NC3(c4ncccn4)CC3)no2)cc1 [Example 7.009, (3S,4S)-4-{[5-(4-Cyano-phenyl)-isoxazole-3-carbonyl]-amino}-1-cyclopropylmethyl-piperidine-3-carboxylic acid (1-pyrimidin-2-yl-cyclopropyl)-amide]
Second: O=C(N[C@H]1CCN(CC2CC2)C[C@@H]1C(=O)NC1(c2ncccn2)CC1)c1ncc(-c2ccc(F)cc2F)o1 [Example 7.011, (3S,4S)-1-Cyclopropylmethyl-4-{[5-(2,4-difluoro-phenyl)-oxazole-2-carbonyl]-amino}-piperidine-3-carboxylic acid (1-pyrimidin-2-yl-cyclopropyl)-amide]
The IC50 of the first is 3.1-fold higher: 240 nM for the first, 78 nM for the second. The second is the more potent here.

O=C(N[C@H]1CCN(CC2CC2)C[C@@H]1C(=O)NC1(c2ncccn2)CC1)c1cn(-c2c(F)cc(F)cc2F)nn1 [Example 7.012, (3S,4S)-1-Cyclopropylmethyl-4-{[1-(2,4,6-trifluoro-phenyl)-1H-[1,2,3]triazole-4-carbonyl]-amino}-piperidine-3-carboxylic acid (1-pyrimidin-2-yl-cyclopropyl)-amide] and O=C(N[C@H]1CCN(CC2CC2)C[C@@H]1C(=O)NC1(c2ncccn2)CC1)c1cc(-c2ccc(F)c(F)c2)on1 [Example 7.013, (3S,4S)-1-Cyclopropylmethyl-4-{[5-(3,4-difluoro-phenyl)-isoxazole-3-carbonyl]-amino}-piperidine-3-carboxylic acid (1-pyrimidin-2-yl-cyclopropyl)-amide] are within 1.5-fold of each other in IC50: 356 nM for the first, 252 nM for the second.

First: O=C(N[C@H]1CCN(CC2CC2)C[C@@H]1C(=O)NC1(c2ncccn2)CC1)c1cc(-c2ccc(F)cc2F)ns1 [Example 7.014, (3S,4S)-1-Cyclopropylmethyl-4-{[3-(2,4-difluoro-phenyl)-isothiazole-5-carbonyl]-amino}-piperidine-3-carboxylic acid (1-pyrimidin-2-yl-cyclopropyl)-amide]
Second: O=C(N[C@H]1CCN(CC2CC2)C[C@@H]1C(=O)NC1(c2ncccn2)CC1)c1cc(-c2ccc(F)cc2F)sn1 [Example 7.015, (3S,4S)-1-Cyclopropylmethyl-4-{[5-(2,4-difluoro-phenyl)-isothiazole-3-carbonyl]-amino}-piperidine-3-carboxylic acid (1-pyrimidin-2-yl-cyclopropyl)-amide]
The IC50 of the first is 3.1-fold higher: 629 nM for the first, 201 nM for the second. The second is the more potent here.

Compared with O=C(N[C@H]1CCN(CC2CC2)C[C@@H]1C(=O)NC1(c2ncccn2)CC1)c1nnc(-c2ccc(F)cc2F)s1 [Example 7.016, (3S,4S)-1-Cyclopropylmethyl-4-{[5-(2,4-difluoro-phenyl)-[1,3,4]thiadiazole-2-carbonyl]-amino}-piperidine-3-carboxylic acid (1-pyrimidin-2-yl-cyclopropyl)-amide], “(3R*,4R*)-1-Cyclohexyl-4-{[1-(2,4-difluoro-phenyl)-1H-[1,2,3]triazole-4-carbonyl]-amino}-piperidine-3-carboxylic acid ((1R*,2S*)-2-phenyl-cyclopropyl)-amide and (3R*,4R*)-1-Cyclohexyl-4-{[1-(2,4-difluoro-phenyl)-1H-[1,2,3]triazole-4-carbonyl]-amino}-piperidine-3-carboxylic acid ((1S*,2R*)-2-phenyl-cyclopropyl)-amide [Example 1.145]” is 180-fold higher in IC50: 2 nM for the first, 363 nM for the second. The first is the more potent here.

Compared with “(3R*,4R*)-1-Cyclohexyl-4-{[3-(2,4-difluoro-phenyl)-isoxazole-5-carbonyl]-amino}-piperidine-3-carboxylic acid ((1S*,2R)-2-phenyl-cyclopropyl)-amide and (3R*,4R*)-1-Cyclohexyl-4-{[3-(2,4-difluoro-phenyl)-isoxazole-5-carbonyl]-amino}-piperidine-3-carboxylic acid ((1R*,2S*)-2-phenyl-cyclopropyl)-amide [Example 1.147]”, “(3R*,4R*)-1-Cyclopentyl-4-{[1-(2,4-difluoro-phenyl)-1H-[1,2,3]triazole-4-carbonyl]-amino}-piperidine-3-carboxylic acid ((1S*,2R*)-2-phenyl-cyclopropyl)-amide and (3R*,4R*)-1-Cyclopentyl-4-{[1-(2,4-difluoro-phenyl)-1H-[1,2,3]triazole-4-carbonyl]-amino}-piperidine-3-carboxylic acid ((1R*,2S*)-2-phenyl-cyclopropyl)-amide [Example 1.146]” is 2-fold higher in IC50: 443 nM for the first, 904 nM for the second. The first is the more potent here.

“(3R*,4R*)-1-Cyclopentyl-4-{[3-(2,4-difluoro-phenyl)-isoxazole-5-carbonyl]-amino}-piperidine-3-carboxylic acid ((1S*,2R*)-2-phenyl-cyclopropyl)-amide and (3R*,4R*)-1-Cyclopentyl-4-{[3-(2,4-difluoro-phenyl)-isoxazole-5-carbonyl]-amino}-piperidine-3-carboxylic acid ((1R*,2S*)-2-phenyl-cyclopropyl)-amide [Example 1.148]” was tested, and the IC50 was 769 nM.

Same assay, conditions: antagonistic effect on CXCR7; Tango CXCR7-bla U2OS cells; CXCL12/SDF1-α at its EC80; geometric mean

O=C(N[C@H]1CCN(CC2CC2)C[C@@H]1C(=O)NC1(c2ncccn2)CC1)c1cc(-c2ccccc2)on1 [Reference Example 3, (3S,4S)-1-Cyclopropylmethyl-4-[(5-phenyl-isoxazole-3-carbonyl)-amino]-piperidine-3-carboxylic Acid (1-pyrimidin-2-yl-cyclopropyl)-amide, reference compound] was tested, and the IC50 was 1330 nM.
